Tests used:
mouse liver COMT = target: T1, mouse liver COMT (Mus musculus, UniProt O88587); assay: Mouse liver COMT activity after oral administration of test compounds; assay type: in vivo; settings: 3 mg/kg oral, 3 h after administration
T1 construct: Aliquots of 0.5 ml of liver homogenates were preincubated; from tissue; host or cells: mouse liver homogenate (NMRI mice, dosed orally; ex vivo activity)
T1 sequence (O88587 1-265): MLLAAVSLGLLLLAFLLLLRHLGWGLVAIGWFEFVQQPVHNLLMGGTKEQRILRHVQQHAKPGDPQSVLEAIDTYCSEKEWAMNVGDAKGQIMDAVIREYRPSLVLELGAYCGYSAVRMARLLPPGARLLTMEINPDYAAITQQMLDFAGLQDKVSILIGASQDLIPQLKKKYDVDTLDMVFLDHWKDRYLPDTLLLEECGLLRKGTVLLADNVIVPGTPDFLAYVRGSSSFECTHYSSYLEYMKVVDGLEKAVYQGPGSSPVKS

[1] = tested on: Neuro 2A mouse neuroblastoma cells; assay: Cell toxicity: Neuro 2A cell viability (calcein-AM); assay type: cell-based; settings: Neuro 2A cells, 30 μM, 24 h exposure
rat liver COMT = target: T2, rat liver COMT (Rattus norvegicus, UniProt P22734); assay: Rat liver COMT activity after oral administration of test compounds; assay type: in vivo; settings: 3 mg/kg oral
T2 construct: the organs were immediately removed and homogenised in 5 mM phosphate buffer of pH 7.8; from tissue; host or cells: rat liver homogenate (Wistar rats, dosed orally; ex vivo activity)
T2 sequence (P22734 1-264): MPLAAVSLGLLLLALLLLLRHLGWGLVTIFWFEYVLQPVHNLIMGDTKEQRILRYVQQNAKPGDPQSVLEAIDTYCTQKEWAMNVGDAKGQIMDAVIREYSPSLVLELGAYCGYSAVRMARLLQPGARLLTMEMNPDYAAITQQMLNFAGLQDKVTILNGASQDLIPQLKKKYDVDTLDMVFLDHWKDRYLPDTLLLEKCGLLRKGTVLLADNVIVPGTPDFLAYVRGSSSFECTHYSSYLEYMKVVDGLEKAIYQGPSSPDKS

[2] = tested on: plasma levels of L-DOPA and 3-O-methyl-L-DOPA (3-OMD); assay: Levels of L-DOPA and 3-O-methyl-L-DOPA in plasma of rats treated with L-DOPA plus benserazide; assay type: in vivo, rat; settings: 3 mg/kg oral, 2 h after administration; for L-DOPA % increase (plasma level, % control) / 3-OMD % reduction (plasma level, % control): L-DOPA plus benserazide 1 h before plasma collection; for 3-OMD % reduction (plasma level, % control): given with minus sign; for L-Dopa/3-OMD: plasma ratio

Compound | COMT activity (% of control) (mouse liver COMT) | % of viable cells [1] | Rat Liver COMT activity (% control) (rat liver COMT; 1 h after administration) | Rat Liver COMT activity (% control) (rat liver COMT; 3 h after administration) | Rat Liver COMT activity (% control) (rat liver COMT; 6 h after administration) | Rat Liver COMT activity (% control) (rat liver COMT; 9 h after administration) | L-DOPA % increase (plasma level, % control) [2] | 3-OMD % reduction (plasma level, % control) [2] | L-Dopa/3-OMD [2]
O=[N+]([O-])c1cc(-c2nc(-c3c[n+]([O-])ccc3C(F)(F)F)no2)cc(O)c1O [Compound 18, 3-Nitro-5-[3-(1-oxy-4-trifluoromethyl-pyridin-3-yl)-[1,2,4]oxadiazol-5-yl]-benzene-1,2-diol] | 21.2 % of control | 93.4% | 5.2 % control | 19.9 % control | 43.0 % control | 57.4 % control | 61.4% | −63.9% | 4.5
Cc1c(-c2noc(-c3cc(O)c(O)c([N+](=O)[O-])c3)n2)ccc(C(F)(F)F)[n+]1[O-] [Compound 29, 5-[3-(2-Methyl-1-oxy-6-trifluoromethyl-pyridin-3-yl)-[1,2,4]oxadiazol-5-yl]-3-nitro-benzene-1,2-diol] | 10.9 % of control | 62.2% | 1.2 % control | 18.5 % control | 39.7 % control | 56.4 % control | 105.1% | −80.7% | 10.6
Cc1cc(C(F)(F)F)c(-c2noc(-c3cc(O)c(O)c([N+](=O)[O-])c3)n2)c[n+]1[O-] [Compound 30, 5-[3-(6-Methyl-1-oxy-4-trifluoromethyl-pyridin-3-yl)-[1,2,4]oxadiazol-5-yl]-3-nitro-benzene-1,2-diol] | 8.8 % of control | 81.8% | 6.3 % control | 34.8 % control | 41.2 % control | 54.5 % control | 103.5% | −75.0% | 8.1
Cc1cc(C(F)(F)F)c(-c2noc(-c3cc(O)c(O)c([N+](=O)[O-])c3)n2)c(C)[n+]1[O-] [Compound 31, 5-[3-(2,6-Dimethyl-1-oxy-4-trifluoromethyl-pyridin-3-yl)-[1,2,4]oxadiazol-5-yl]-3-nitro-benzene-1,2-diol] | 0.8 % of control | 37.2% |  |  |  |  |  |  | 
Cc1c(-c2noc(-c3cc(O)c(O)c([N+](=O)[O-])c3)n2)c(C(F)(F)F)cc(-c2ccccc2)[n+]1[O-] [Compound 32, 5-[3-(2-Methyl-1-oxy-6-phenyl-4-trifluoromethyl-pyridin-3-yl)-[1,2,4]oxadiazol-5-yl]-3-nitro-benzene-1,2-diol] | 9.7 % of control | 26.6% |  |  |  |  |  |  | 
Cc1cc(C(F)(F)F)c(-c2noc(-c3cc(O)c(O)c([N+](=O)[O-])c3)n2)c(-c2ccccc2)[n+]1[O-] [Compound 33, 5-[3-(6-Methyl-1-oxy-2-phenyl-4-trifluoromethyl-pyridin-3-yl)-[1,2,4]oxadiazol-5-yl]-3-nitro-benzene-1,2-diol] | 39.8 % of control | 45.0% |  |  |  |  |  |  | 
Cc1ccc(-c2noc(-c3cc(O)c(O)c([N+](=O)[O-])c3)n2)c(Br)[n+]1[O-] [Compound 36, 5-[3-(2-Bromo-6-methyl-1-oxy-pyridin-3-yl)-[1,2,4]oxadiazol-5-yl]-3-nitro-benzene-1,2-diol] | 22.9 % of control | 76.3% |  |  |  |  |  |  | 
Cc1cc(C)[n+]([O-])c(Cl)c1-c1noc(-c2cc(O)c(O)c([N+](=O)[O-])c2)n1 [Compound 37, 5-[3-(2-Chloro-4,6-dimethyl-1-oxy-pyridin-3-yl)-[1,2,4]oxadiazol-5-yl]-3-nitro-benzene-1,2-diol] | 42.5 % of control | 92.3% |  |  |  |  |  |  | 
Cc1cc(C)[n+]([O-])c(Br)c1-c1noc(-c2cc(O)c(O)c([N+](=O)[O-])c2)n1 [Compound 38, 5-[3-(2-Bromo-4,6-dimethyl-1-oxy-pyridin-3-yl)-[1,2,4]oxadiazol-5-yl]-3-nitro-benzene-1,2-diol] | 16.3 % of control | 86.0% |  |  |  |  |  |  | 
O=[N+]([O-])c1cc(-c2nc(Cc3ccc[n+]([O-])c3)no2)cc(O)c1O [Compound 39, 3-Nitro-5-[3-(1′-oxy-pyridin-3-ylmethyl)-[1,2,4]oxadiazol-5-yl]-benzenediol] | 53.8 % of control | 94.9% |  |  |  |  |  |  | 
Cc1c(C)c(C)[n+]([O-])c(Br)c1-c1noc(-c2cc(O)c(O)c([N+](=O)[O-])c2)n1 [Compound 40, 5-[3-(2-Bromo-4,5,6-trimethyl-1-oxy-pyridin-3-yl)-[1,2,4]oxadiazol-5-yl]-3-nitrobenzene-1,2-diol] | 55.2 % of control | 69.1% |  |  |  |  |  |  | 
Cc1c(C)c(C)[n+]([O-])c(Cl)c1-c1noc(-c2cc(O)c(O)c([N+](=O)[O-])c2)n1 [Compound 41, 5-[3-(2-Chloro-4,5,6-trimethyl-1-oxy-pyridin-3-yl)-[1,2,4]oxadiazol-5-yl]-3-nitrobenzene-1,2-diol] | 14 % of control | 95.1% | 21.2 % control | 9.3 % control | 18.8 % control | 39.7 % control | 95.2% | −72.3% | 7.1
O=[N+]([O-])c1cc(-c2nc(-c3ccc[n+]([O-])c3C(F)(F)F)no2)cc(O)c1O [Compound 42, 3-Nitro-5-[3-(1-oxy-2-trifluoromethyl-pyridin-3-yl)-[1,2,4]oxadiazol-5-yl]-benzene-1,2-diol] | 9.4 % of control | 96.4% | 3.6 % control | 6.1 % control | 12.3 % control | 30.9 % control | 30.7% | −43.4% | 2.3
O=[N+]([O-])c1cc(-c2nc(Cc3ccc(C(F)(F)F)[n+]([O-])c3)no2)cc(O)c1O [Compound 43, 3-Nitro-5-[3-(1′-oxy-6-trifluoromethyl-pyridine-3-ylmethyl)-[1,2,4]oxadiazol-5-yl]-benzene-1,2-diol] | 27.2 % of control | 101.5% | 16.1 % control | 30.6 % control | 64.3 % control | 77.9 % control | 74.9% | −48.3% | 3.4
Cc1c(Cl)c(C)[n+]([O-])c(Cl)c1-c1noc(-c2cc(O)c(O)c([N+](=O)[O-])c2)n1 [Compound 45, 5-[3-(2,5-Dichloro-4,6-dimethyl-1-oxy-pyridin-3-yl)-[1,2,4]oxadiazol-5-yl]-3-nitrobenzene-1,2-diol] | 30.4 % of control | 86.6% |  |  |  |  | 100.8% | −54.3% | 4.4
Cc1c(-c2noc(-c3cc(O)c(O)c([N+](=O)[O-])c3)n2)c[n+]([O-])c(C)c1C [Compound 46, 3-Nitro-5-[3-(4,5,6-trimethyl-1-oxy-pyridin-3-yl)-[1,2,4]oxadiazol-5-yl]-benzene-1,2-diol] | 43.1 % of control | 53.0% |  |  |  |  |  |  | 
Cc1c(Cl)c(C)[n+]([O-])c(Br)c1-c1noc(-c2cc(O)c(O)c([N+](=O)[O-])c2)n1 [Compound 47, 5-[3-(2-Bromo-5-chloro-4,6-dimethyl-1-oxy-pyridin-3-yl)-[1,2,4]oxadiazol-5-yl]-3-nitrobenzene-1,2-diol] | 25.2 % of control | 81.2% | 10.6 % control | 4.0 % control | 3.8 % control | 8.2 % control | 102.9% | −58.5% | 4.9
CCN(CC)C(=O)/C(C#N)=C/c1cc(O)c(O)c([N+](=O)[O-])c1 [Entacapone, (E)-2-cyano-N,N-diethyl-3-(3,4-dihydroxy-5-nitrophenyl)acrylamide, reference compound] |  |  |  |  |  |  | 68.5% | −55.6% | 3.8

From patent publication US20200102295A1, “NITROCATECHOL DERIVATIVES AS COMT INHIBITORS” (BIAL - PORTELA & CA, S.A., priority 2005, published 2020)
